Test [1] addresses T1, AnSt-D7L1 (Anopheles stephensi, UniProt Q95NY5). As to conditions: for binding to AnSt-D7L1 by ITC (in words): ITC screen of candidate ligands, partly unpublished data; for Kd: read-out: dissociation constant (Kd), ITC, 35°C, 40 µM ligand in syringe, 4 µM AnSt-D7L1 in cell, single binding site model. A general note: In ITC the heat of successive injections is recorded.
Protocol: (§1) Binding experiments were performed on a MicroCal VP-ITC instrument. For CysLT experiments the syringe contained a 20 µM ligand solution, and the AnSt-D7L1 concentration in the cell was 2 µM. For the TXA2 analog experiments the ligand solution used to fill the syringe was 40 µM and the AnSt-D7L1 concentration in the cell was 4 µM. Assays were performed at 35°C with successive 10 µL injections.
(§2) Binding experiments were performed on a MicroCal VP-ITC instrument. For these experiments, the ligand solution used to fill the syringe was 80 µM and AnSt-D7L1 concentration in the calorimeter cell was 8 µM. Assays were performed at 35°C with successive 10 µL injections.
(§3) AnSt-D7L1 was prepared for ITC experiments by dialysis against 20 mM Tris-HCl 0.15 M NaCl pH 7.4 for 1 h. Binding experiments were performed on a MicroCal VP-ITC instrument. Aliquots of lipid stock solutions in ethanol or methyl acetate were dried under a stream of nitrogen in a glass vial, then dissolved in 20 mM Tris HCl, 0.15 M NaCl pH 7.4, vortexed, and sonicated for 8 min. Non-lipidic ligands were dissolved in 20 mM Tris HCl, 0.15 M NaCl pH 7.4. All solutions were degassed prior to use. Assays were performed at 35°C with successive 10 µL injections, with a spacing interval of 180 s and a syringe stirring speed of 290 rpm. In all the cases, after subtraction of the heats of dilution, the measured heats were converted to enthalpies and analyzed by fitting to a single-site binding model using the Microcal Origin software.
Another test addresses CysLT1. Set-up: method as in PMID 16107763. As to conditions: read-out: affinity of CysLT1; cited from earlier work.
The target of test [2] is T1, AnSt-D7L1. The test is described as follows: biochemical.
Protocol: as §1, §2, §3
A further test has as its system AeD7. Set-up: method as in PMID 19234127. As to conditions: cited from earlier work.
Test [3] relates to Human platelet-rich plasma. The test is described as follows: Platelet aggregation assay in an aggregometer. In kind it is cell-based. As to conditions: for effect on collagen-induced platelet aggregation (comparison with TXA2 antagonists): 3 µM AnSt-D7L1, SQ 29,548, or indomethacin pre-treatment; for effect on U46619-induced platelet shape change / effect on U46619-induced platelet aggregation: 1.3 µM U46619; for effect on U46619-induced platelet shape change: AnSt-D7L1 2 and 3 µM, SQ 29,548 1 µM without protein. On the procedure: Figure 5 Effect of AnSt-D7L1 on platelet aggregation promoted by different agonists. Platelet-rich human plasma was incubated with different concentrations of AnSt-D7L1 for 1 min prior to the addition of agonists as indicated. Aggregation was measured at 37°C on an aggregometer. Unless otherwise stated protein concentration (µM) is shown under respective curves. (A) Concentration dependence of AnSt-D7L1 inhibition of collagen-mediated platelet aggregation at low concentration of collagen. (B) Lack of inhibition of collagen-mediated platelet aggregation by AnSt-D7L1 at high concentration of collagen. (C) Lack of inhibition of convulxin-mediated platelet aggregation by AnSt-D7L1. (D) ADP-mediated platelet aggregation in the absence of any protein (control), in the presence of 3 µM AnSt-D7L1, or in the presence of 3 µM RPAI1, which is known to bind ADP. (E) Lack of effect of AnSt-D7L1 on PMA-induced platelet aggregation. (F) Lack of effect of AnSt-D7L1 on ristocetin-induced platelet aggregation.
Figure 6 AnSt-D7L1 affects platelet aggregation promoted by TXA2. Platelet-rich human plasma was incubated with different concentrations of AnSt-D7L1 or buffer, as indicated, for 1 min prior to the addition of agonists indicated in each panel. (A) Aggregation mediated by collagen in the presence of TXA2 antagonists. The effect of 3 µM AnSt-D7L1 on collagen-induced aggregation was similar to the effect promoted by a thromboxane receptor (TP) antagonist (SQ 29,548) or by pre-incubating platelets with indomethacin, a general cyclooxygenase inhibitor. […] (B) AnSt-D7L1 has a dose dependent effect on U46619-induced platelet aggregation. Protein concentrations are shown on the bottom of each curve. […] (C) AnSt-D7L1 (3 µM) affects AA-induced platelet aggregation. […] Respective treatments are indicated in the bottom of each curve.
Platelets were prepared as described previously. Human platelet-rich plasma (∼2×10^5/µL final density) and Tyrode-BSA buffer in the presence or absence of AnSt-D7L1 (final volume 300 µL) were placed in an aggregometer and stirred at 1,200 rpm at 37°C for 1 min prior to the addition of different agonists. In experiments using the human TP (TXA2 receptor) antagonist SQ 29,548 or made in the presence of proteins (AnSt-D7L1 or RPAI-1), those compounds were added to the platelet suspension and Tyrode mix prior to addition of agonists. In experiments in which indomethacin, a general cycloxygenase inhibitor, was used, platelets were pre-incubated with the compound for 5 min prior to addition of agonists.

Test [4] has as its target T1, AnSt-D7L1. The test is described as follows: Incubation of LTC4 with AnSt-D7L1, gel filtration, HPLC and mass spectrometry (test for hydrolytic or enzymatic function). Also on record: made in house. As to conditions: incubated at 25°C; mass spectrum of bound versus free ligand. How it is done:
Fractions containing the complex were then applied to a C18 HPLC column, eluted with methanol, and analyzed by mass spectrometry.
(B) LTC4 was injected alone in order to obtain a retention volume measurement for the free ligand. In both cases, the column was eluted with 100 mM ammonium acetate pH 7.2 at a flow rate of 60 µL per min. (0.39 MB TIF) Click here for additional data file.
Supplementary file pbio.1000547.s003.tif: Figure S3 Mass spectral analysis of the AnSt-D7L1-LTC4 complex after gel filtration chromatography. Top: The peak fraction from the gel filtration of Figure S2 (3 µl) was applied to a C18 column and eluted with 5% methanol 0.1% acetic acid for 10 min, then 5%–95% methanol 0.1% acetic acid (0.3 mm diameter column in 20 min at 3 µl/min). The eluent was analyzed directly by MS/MS. […] The inset is a sample collision-induced dissociation spectrum (35% intensity) recorded at 61–65 min. (2.15 MB TIF) Click here for additional data file.

A further test deals with rat aorta. In words: Smooth muscle bioassay: U46619-induced contraction of rat aorta. On the procedure: Figure 4 Smooth muscle contraction bioassay.
Tissue preparations were bathed in modified Tyrode solution (with 10 mM HEPES buffer, pH 7.4) during the course of the experiment, and the solutions were kept oxygenated by bubbling air into the bath.

Another test addresses TP receptor. Set-up: method as in PMID 18374420. Particulars: Gα12/13-coupled signaling; read-out: EC50 for TP-mediated shape change; cited from earlier work.

“Also recorded” adds a separate entry of the source. Where two headings read alike, the source gives them in different places.

T1 sequence (Q95NY5 19-315 limits assumed): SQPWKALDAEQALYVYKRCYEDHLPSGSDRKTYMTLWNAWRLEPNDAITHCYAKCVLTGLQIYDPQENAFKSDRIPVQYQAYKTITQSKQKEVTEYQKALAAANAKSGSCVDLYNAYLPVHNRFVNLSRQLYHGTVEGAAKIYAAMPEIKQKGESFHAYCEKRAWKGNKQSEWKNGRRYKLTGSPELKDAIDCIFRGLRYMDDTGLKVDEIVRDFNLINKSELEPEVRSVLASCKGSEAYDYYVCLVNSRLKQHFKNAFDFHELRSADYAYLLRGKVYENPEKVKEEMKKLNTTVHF

For the compound `CCCCC/C=C\C/C=C\C/C=C\C/C=C\CCCC(=O)O` [AA, arachidonic acid], the “binding to AnSt-D7L1 by ITC (in words)” value on AnSt-D7L1 [1] was “no detectable binding”.
As for `CCCCC/C=C\C\C=C/C=C/C=C/[C@@H](SC[C@H](N)C(=O)O)[C@@H](O)CCCC(=O)O` [LTE4, leukotriene E4], the Kd on CysLT1 was approximately 100 nM.
In the case of platelet activating factor [PAF], at AnSt-D7L1 [1], the “binding to AnSt-D7L1 by ITC (in words)” value is “Neither showed any detectable binding”.
Consider `CCCCC[C@H](O)/C=C/[C@@H]1[C@@H](C/C=C\CCCC(=O)O)[C@@H](O)C[C@H]1O` [PGF2α, prostaglandin F2α], for which the “binding to AnSt-D7L1 by ITC (in words)” value at AnSt-D7L1 [1] is “affinities much lower than those seen with CysLTs and TXA2 analogs”. For the same compound, the Kd on AnSt-D7L1 [2] is 671 ± 61 nM.
For `CCCCC/C=C\C[C@@H](O)/C=C/C=C/C=C\[C@@H](O)CCCC(=O)O` [LTB4, leukotriene B4], the “binding to AnSt-D7L1 by ITC (in words)” value on AnSt-D7L1 [1] was “did not bind”. In addition, the “binding to AeD7 (in words)” value in the test with AeD7 is reported as “low affinity”.
`CCCCC/C=C\C\C=C/C=C/C=C/[C@@H](SC[C@H](N)C(=O)NCC(=O)O)[C@@H](O)CCCC(=O)O` [LTD4, leukotriene D4] gave a Kd on AnSt-D7L1 [2] of 5 ± 1 nM.
On to `COc1ccc2c(c1)c(CC(=O)O)c(C)n2C(=O)c1ccc(Cl)cc1` [indomethacin], for which, in test [3], the “effect on collagen-induced platelet aggregation (comparison with TXA2 antagonists)” value (“effect … (comparison with TXA2 antagonists)” for short) is on record as “attenuated”.
With `O=C(O)CCC/C=C\C[C@@H]1[C@H](CNNC(=O)Nc2ccccc2)[C@H]2CC[C@@H]1O2` [SQ 29,548], in test [3], the “effect on U46619-induced platelet shape change” value is “prevented” and the “effect … (comparison with TXA2 antagonists)” value is listed as “attenuated”.
Take `CCCCC/C=C\C\C=C/C=C/C=C/[C@@H](SC[C@H](NC(=O)CC[C@H](N)C(=O)O)C(=O)NCC(=O)O)[C@@H](O)CCCC(=O)O` [LTC4, leukotriene C4]: at AnSt-D7L1 [4], the “chemical modification of bound LTC4 by AnSt-D7L1” value is reported as “binds but does not chemically modify”.
For `CCCCC[C@H](O)/C=C/[C@H]1C(=O)C[C@H](O)[C@@H]1C/C=C\CCCC(=O)O` [PGD2], the “binding to AnSt-D7L1 by ITC (in words)” value on AnSt-D7L1 [1] is “affinities much lower than those seen with CysLTs and TXA2 analogs”.
Take `CNC[C@H](O)c1cccc(O)c1` [phenylephrine]: the “contraction of aorta after relaxation by AnSt-D7L1” value in the test with rat aorta (3 µM phenylephrine added after relaxation) was “contracted normally”.
In the case of `CCCCC[C@H](O)/C=C/[C@H]1CC2CC(C2)[C@@H]1C/C=C\CCCC(=O)O` [carbocyclic TXA2], at AnSt-D7L1 [1], the Kd is approximately 38 nM.
For the compound “AnSt-D7L1: recombinant two-domain D7 salivary protein from An. stephensi that binds CysLTs and TXA2”, the “reversal of contraction induced by U46619” value with rat aorta (aorta pre-contracted with 1 µM U46619, 0.1 µM AnSt-D7L1 added after plateau) is listed as “caused relaxation”. Further, the “effect on U46619-induced contraction of aorta” value in the test with rat aorta (pre-incubation with AnSt-D7L1, 0.1 µM U46619) is reported as “inhibited; also recorded: no contraction”. For the same compound, in the test on rat aorta (pre-incubation with AnSt-D7L1, successive additions of 0.1 µM U46619), the “increase of the amount of U46619 needed to promote contraction” value is “approximately 3 fold”. Besides, the “effect on U46619-induced platelet aggregation” value was “dramatically inhibited aggregation” in test [3] (1 µM AnSt-D7L1); “completely prevented aggregation” in test [3] (2 and 3 µM AnSt-D7L1); “delayed but did not prevent platelet aggregation” in test [3] (low AnSt-D7L1 concentrations, less than 1:1 ratio). For the same compound, in test [3], the “effect on U46619-induced platelet shape change” value is given as “not completely inhibited”. Also, in test [3] (AA as agonist, 3 µM AnSt-D7L1, or indomethacin pre-incubation without protein), the “effect on AA-induced platelet aggregation” value is “drastically decreased”. Further, the “inhibition of convulxin-induced platelet aggregation” value in test [3] (GPVI agonist convulxin) was “inhibitory effect of AnSt-D7L1 was lost”. The “inhibition of collagen-induced platelet aggregation” value in test [3] (collagen at high concentration) is recorded as “inhibitory effect of AnSt-D7L1 was lost”; in test [3] (low collagen 1.6 µg/mL, 1 µM AnSt-D7L1), “almost completely inhibited”. In addition, in test [3], the “effect … (comparison with TXA2 antagonists)” value is on record as “very similar”. Moreover, the “effect on the platelet response to collagen stimulation” value in test [3] (low collagen, 0.03 µM AnSt-D7L1) is recorded as “sufficient to remove a significant fraction of the TXA2”. Further, the “effect on the platelet aggregation response to collagen” value in test [3] (low collagen, 0.1 µM AnSt-D7L1) is on record as “eliminates most of the aggregation response”. The “inhibition of ADP-induced platelet shape change” value in test [3] (minimal dose of ADP eliciting shape change, 3 µM protein) is “no inhibitory effect”. Besides, the “effect on PMA-induced platelet aggregation” value in test [3] (protein kinase C activator PMA) is on record as “no effect”. Besides, in test [3] (ristocetin, VWF-dependent), the “effect on ristocetin-induced platelet agglutination” value is given as “no effect”.
As to `CCCCC[C@H](O)/C=C/[C@H]1[C@H](O)CC(=O)[C@@H]1C/C=C\CCCC(=O)O` [PGE2, prostaglandin E2], the “binding to AnSt-D7L1 by ITC (in words)” value at AnSt-D7L1 [1] was “affinities much lower than those seen with CysLTs and TXA2 analogs”. In addition, at AnSt-D7L1 [2], the Kd stood at 1900 ± 200 nM.
The term EC50 denotes the concentration giving half of the maximal effect. In the case of `CCCCC[C@H](O)/C=C/[C@@H]1[C@@H](C/C=C\CCCC(=O)O)[C@H]2CO[C@@H]1C2` [U46619], on AnSt-D7L1 [1], the Kd was approximately 98 nM. Also, the concentration giving a half-maximal response (EC50) at TP receptor was approximately 13 nM. In addition, the “binding to AeD7 (in words)” value in the test with AeD7 is listed as “no detectable binding”.
As for `Nc1ncnc2c1ncn2[C@@H]1O[C@H](COP(=O)(O)OP(=O)(O)O)[C@@H](O)[C@H]1O` [ADP, adenosine diphosphate], the “binding to AnSt-D7L1 by ITC (in words)” value on AnSt-D7L1 [1] is recorded as “Neither showed any detectable binding”.
As for `CCCCCC/C=C/C1C2CC(N=N2)C1C/C=C\CCCC(=O)O` (stereo not shown) [U51605], at AnSt-D7L1 [1], the “binding to AnSt-D7L1 by ITC (in words)” value is “detectable but much weaker binding than U46619”.
Compound `CCCCC[C@H](O)/C=C/[C@H]1OC(O)C[C@H](O)[C@@H]1C/C=C\CCCC(=O)O` (stereo partly shown) [TXB2, thromboxane B2] gave a Kd at AnSt-D7L1 [2] of 1300 ± 200 nM.

The values are drawn from paper PMC2994686, “The Function and Three-Dimensional Structure of a Thromboxane A2/Cysteinyl Leukotriene-Binding Protein from the Saliva of a Mosquito Vector of the Malaria Parasite” (PLoS Biology, 2010).
